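The compound was tested at five concentrations on cells cultured in 96-well plates, with a 48-hour exposure period. GI50 = concentration required for 50% inhibition of growth. TGI: concentration producing complete growth inhibition.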

Among the test systems are NCI-H226 lung; 786-0 renal; SK-MEL-5 melanoma; KM12 colon; DU-145 prostate; RPMI-8226 leukemia; TK-10 renal; IGROV1 ovarian; OVCAR-5 ovarian; MDA-MB-435.
Common to all, as to experiment: NCI tumour cell line growth inhibition, 48 h

For the compound `Cc1cc(Cl)ccc1NC(=O)c1cc2ccccc2cc1O`, the GI50 with NCI-H226 lung was 0.93 µM; with 786-0 renal it was 1.19 µM; in the test with SK-MEL-5 melanoma it was 0.373 µM; in the test on KM12 colon it was 1.91 µM; in the test with DU-145 prostate, 1.15 µM; in the test on RPMI-8226 leukemia, 0.294 µM. In addition, the GI50 in the test on TK-10 renal was 1.56 µM; in the test with IGROV1 ovarian, 0.993 µM; with OVCAR-5 ovarian it was 4.2 µM; in the test on MDA-MB-435, 0.555 µM. Besides, the TGI was more than 100 µM in the test on NCI-H226 lung; more than 100 µM in the test on 786-0 renal; 2.43 µM with SK-MEL-5 melanoma; more than 44 µM with KM12 colon; more than 100 µM in the test on DU-145 prostate; 1.18 µM in the test with RPMI-8226 leukemia. Further, the TGI with TK-10 renal, with IGROV1 ovarian, with OVCAR-5 ovarian and with MDA-MB-435 was more than 100 µM in each case.
With `NC(=O)c1cc(-c2ccc(F)cc2)cc(-c2ccncc2)c1N`, the GI50 in the test on NCI-H226 lung was 19.9 µM; in the test on 786-0 renal, more than 25 µM; with SK-MEL-5 melanoma it was more than 20.2 µM; in the test on KM12 colon, more than 25 µM; in the test on DU-145 prostate, more than 25 µM; in the test on RPMI-8226 leukemia, more than 25 µM. The GI50 in the test on TK-10 renal, with IGROV1 ovarian, with OVCAR-5 ovarian and with MDA-MB-435 was more than 25 µM each time. For the same compound, the TGI in the test on NCI-H226 lung, in the test on 786-0 renal, in the test with SK-MEL-5 melanoma, in the test on KM12 colon, in the test with DU-145 prostate and with RPMI-8226 leukemia was more than 25 µM throughout. Further, the TGI in the test with TK-10 renal, in the test on IGROV1 ovarian, in the test on OVCAR-5 ovarian and in the test with MDA-MB-435 was more than 25 µM throughout.
Take `COc1ccc(OC)c(/C=C(/C)[N+](=O)[O-])c1`: the GI50 in the test on NCI-H226 lung was 13.8 µM; in the test on 786-0 renal, 1.94 µM; with SK-MEL-5 melanoma it was 3.47 µM; in the test on KM12 colon, 2.28 µM; with DU-145 prostate, 1.64 µM; in the test on RPMI-8226 leukemia, 0.603 µM. The GI50 was 1.96 µM in the test with TK-10 renal, 2.97 µM in the test on IGROV1 ovarian, 3.13 µM in the test on OVCAR-5 ovarian and 2.29 µM in the test with MDA-MB-435. Further, the TGI in the test on NCI-H226 lung was determined as 27.9 µM; with 786-0 renal it was 3.48 µM; in the test with SK-MEL-5 melanoma, 13 µM; in the test on KM12 colon it was 5.94 µM; with DU-145 prostate, 3.16 µM; in the test with RPMI-8226 leukemia, 3.64 µM. Also, the TGI in the test on TK-10 renal is 3.47 µM; in the test with IGROV1 ovarian, 8.39 µM; in the test on OVCAR-5 ovarian, 10.7 µM; with MDA-MB-435, 6.8 µM.
Turning to `COc1ccc(-c2nc3ccccn3c2/C=C/C(=O)c2cc(OC)c(OC)c(OC)c2)cc1`, the GI50 in the test with NCI-H226 lung is 24.1 µM; in the test on 786-0 renal, 3.9 µM; with SK-MEL-5 melanoma it was 2.72 µM; in the test with KM12 colon it was 4.99 µM; in the test with DU-145 prostate it was 7.21 µM; with RPMI-8226 leukemia, 7.5 µM. For the same compound, the GI50 is 4.16 µM with TK-10 renal, 8.86 µM with IGROV1 ovarian, 9.33 µM with OVCAR-5 ovarian and 5.76 µM in the test with MDA-MB-435. The TGI in the test with NCI-H226 lung was more than 100 µM; in the test on 786-0 renal it was more than 100 µM; in the test with SK-MEL-5 melanoma, 14.3 µM; in the test with KM12 colon, more than 100 µM; with DU-145 prostate, 41.1 µM; in the test on RPMI-8226 leukemia, more than 100 µM. Besides, the TGI with TK-10 renal is more than 100 µM; in the test on IGROV1 ovarian it was more than 100 µM; in the test on OVCAR-5 ovarian, 82.2 µM; with MDA-MB-435, 27.6 µM.
On to `CC(=O)O[C@]1(C(C)=O)CC[C@H]2[C@@H]3C=C(C)C4=CC(=O)CC[C@]4(C)[C@H]3CC[C@@]21C`, for which the GI50 is more than 83.7 µM in the test on NCI-H226 lung; more than 80.7 µM in the test with 786-0 renal; 56.3 µM with SK-MEL-5 melanoma; more than 100 µM with KM12 colon; more than 100 µM with DU-145 prostate; 2.78 µM with RPMI-8226 leukemia. Also, the GI50 was more than 77.6 µM in the test on TK-10 renal, more than 100 µM with IGROV1 ovarian, more than 100 µM in the test on OVCAR-5 ovarian and more than 100 µM with MDA-MB-435. The TGI in the test with NCI-H226 lung, in the test on 786-0 renal, in the test on SK-MEL-5 melanoma, with KM12 colon, with DU-145 prostate and in the test on RPMI-8226 leukemia was more than 100 µM throughout. The TGI in the test with TK-10 renal, in the test with IGROV1 ovarian, in the test with OVCAR-5 ovarian and in the test with MDA-MB-435 was more than 100 µM in each case.
Consider `COc1cc2c3c(n(CCCI)c(=O)c2cc1OC)-c1cc2c(cc1C3=O)OCO2`, for which the GI50 was 2.05 µM in the test on NCI-H226 lung; 1.37 µM with 786-0 renal; 1.81 µM with SK-MEL-5 melanoma; 7.4 µM with KM12 colon; 2.28 µM in the test with DU-145 prostate; 3.76 µM in the test with RPMI-8226 leukemia. The GI50 with TK-10 renal was 14.7 µM; in the test on IGROV1 ovarian, 5.24 µM; with OVCAR-5 ovarian, more than 100 µM; with MDA-MB-435, 6.06 µM. In addition, the TGI in the test on NCI-H226 lung was 7.88 µM; in the test on 786-0 renal, more than 100 µM; with SK-MEL-5 melanoma it was 8.5 µM; in the test with KM12 colon, more than 100 µM; in the test on DU-145 prostate, more than 100 µM; with RPMI-8226 leukemia it was more than 100 µM. Also, the TGI with TK-10 renal was 57 µM; in the test with IGROV1 ovarian, more than 100 µM; with OVCAR-5 ovarian, more than 100 µM; in the test on MDA-MB-435, more than 100 µM.
On to `COC(=O)C1=C(C)NC(C)=C(C(=O)OC)C1/C=C(Cl)/C=C/c1ccccc1`, for which the GI50 was 24.8 µM with NCI-H226 lung; 25.9 µM in the test with 786-0 renal; 17.2 µM with SK-MEL-5 melanoma; 18.4 µM in the test on KM12 colon; 18.4 µM in the test with DU-145 prostate; 32.2 µM with RPMI-8226 leukemia. The GI50 in the test on TK-10 renal was 22.7 µM; in the test on IGROV1 ovarian it was 18.2 µM; in the test on OVCAR-5 ovarian it was 19.4 µM; in the test with MDA-MB-435, 18.8 µM. In addition, the TGI in the test on NCI-H226 lung is 73.2 µM; in the test with 786-0 renal it was 70.5 µM; in the test on SK-MEL-5 melanoma it was 33.4 µM; in the test on KM12 colon it was 39.5 µM; in the test on DU-145 prostate, 36.7 µM; in the test with RPMI-8226 leukemia it was more than 100 µM. Further, the TGI in the test with TK-10 renal was found to be 65.9 µM; in the test with IGROV1 ovarian it was 43.8 µM; with OVCAR-5 ovarian, 54.2 µM; in the test on MDA-MB-435 it was 37.1 µM.
On to `C=C1CC/C=C(\C)C(=O)C[C@@H]2[C@@H]1CC2(C)C`, for which the TGI with NCI-H226 lung was 42.8 µM; with 786-0 renal, 6.69 µM; in the test on SK-MEL-5 melanoma it was 10.5 µM; with KM12 colon, 39.1 µM; with DU-145 prostate, 16.6 µM; with RPMI-8226 leukemia it was more than 100 µM. Moreover, the TGI stood at 17.1 µM in the test on TK-10 renal, 12.9 µM in the test on IGROV1 ovarian, 27.3 µM in the test on OVCAR-5 ovarian and 5.18 µM in the test with MDA-MB-435.

Source of the values: PubChem BioAssay (NCI).
